Experimental findings from the supplement of paper PMC11208160 are described below.
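Also: IS621 bridge recombinase in Escherichia coli cells against a fixed T5 target plasmid.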

The nature of this data set: recombinant UMI read abundance after kanamycin selection (control-corrected) (log10(CPM+1)); higher = more efficient recombination; extreme values may be limits of the assay; sequences stand for … in AGTGCAGAGAAAATCGGCCAGTTTTCTCTGCCTGCAGTCCGCATGCCGTGGGACCCCTTGGGTTCTAACCTGTTGCCTAGATTTATGCAGCGGACTGCCTTTCTCCCAAAGTGATAAACCGG…AGGTTGGTTTCACT; site = the 11-nt donor. An outline of the steps: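 Reported values are log10(CPM+1) from a pooled Escherichia coli screen of donor and donor-binding-loop pairs for the IS621 bridge recombinase. Selection used IPTG (0.07 mM) plus kanamycin, against unselected plating, each in two replicates. Recombinant UMIs were amplified across the donor–target junction, sequenced, converted to CPM, averaged over replicates and scaled by control-derived factors.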
With “CGGAATCCATGGACCGGTTTTCCCGGTAATCCGTATTTGTT (site CGCAATCCTAA)”, the “recombinant UMI read abundance (log10)” value is 0.00384.
In the case of “CGGAATCCATGGACCGGTTTTCCCGGTAATCCGTATTTGTT (site CGCAATCCTAC)” it was 0; in that of “CGGAATCCATGGACCGGTTTTCCCGGTAATCCGTATTTGTT (site CGCAATCCTCA)”, 0.00634.
In the case of “CGGAATCCATGGACCGGTTTTCCCGGTAATCCGTATTTGTT (site CGCAATGCTAA)” it was 0.00802.
With “CGGAATCCATGGACCGGTTTTCCCGGTAATCCGTATTTGTT (site CGCACTCCTAA)” the figure was 0.0157; with “CGGAATCCATGGACCGGTTTTCCCGGTAATCCGTATTTGTT (site CGCCATCCTAA)”, 0.
Consider “CGGAATCCATGGACCGGTTTTCCCGGTAATCCGTATTTGTT (site CGGAAACCTAA)”, for which the “recombinant UMI read abundance (log10)” value amounted to 1.09.
In the case of “CGGAATCCATGGACCGGTTTTCCCGGTAATCCGTATTTGTT (site CGGAAACCTAG)” it was 0.112; in that of “CGGAATCCATGGACCGGTTTTCCCGGTAATCCGTATTTGTT (site CGGAAACCTTA)”, 0.
In the case of “CGGAATCCATGGACCGGTTTTCCCGGTAATCCGTATTTGTT (site CGGAAATCTAA)” it was 0.
For “CGGAATCCATGGACCGGTTTTCCCGGTAATCCGTATTTGTT (site CGGAACCCTAA)”, the “recombinant UMI read abundance (log10)” value is 0.157.
In the case of “CGGAATCCATGGACCGGTTTTCCCGGTAATCCGTATTTGTT (site CGGAACCCTAC)” it was 0.00563.
With “CGGAATCCATGGACCGGTTTTCCCGGTAATCCGTATTTGTT (site CGGAACCCTCA)”, the “recombinant UMI read abundance (log10)” value came to 0.0146.
In the case of “CGGAATCCATGGACCGGTTTTCCCGGTAATCCGTATTTGTT (site CGGAACGCTAA)”, the “recombinant UMI read abundance (log10)” value is 0.00389.
With “CGGAATCCATGGACCGGTTTTCCCGGTAATCCGTATTTGTT (site CGGAAGACTAA)” the figure was 0; with “CGGAATCCATGGACCGGTTTTCCCGGTAATCCGTATTTGTT (site CGGAAGCCTAA)”, 0.0104; with “CGGAATCCATGGACCGGTTTTCCCGGTAATCCGTATTTGTT (site CGGAAGCCTAT)”, 0.00319.
Regarding “CGGAATCCATGGACCGGTTTTCCCGGTAATCCGTATTTGTT (site CGGAAGCCTGA)”, the “recombinant UMI read abundance (log10)” value is 0.
Regarding “CGGAATCCATGGACCGGTTTTCCCGGTAATCCGTATTTGTT (site CGGAATACTAA)”, the “recombinant UMI read abundance (log10)” value is 0.
With “CGGAATCCATGGACCGGTTTTCCCGGTAATCCGTATTTGTT (site CGGAATACTAT)” the figure was 0; with “CGGAATCCATGGACCGGTTTTCCCGGTAATCCGTATTTGTT (site CGGAATACTGA)”, 0.
With “CGGAATCCATGGACCGGTTTTCCCGGTAATCCGTATTTGTT (site CGGAATCCTAA)” the figure was 1.19; with “CGGAATCCATGGACCGGTTTTCCCGGTAATCCGTATTTGTT (site CGGAATCCTAC)”, 0; with “CGGAATCCATGGACCGGTTTTCCCGGTAATCCGTATTTGTT (site CGGAATCCTAG)”, 0.
In the case of “CGGAATCCATGGACCGGTTTTCCCGGTAATCCGTATTTGTT (site CGGAATCCTAT)”, the “recombinant UMI read abundance (log10)” value came to 0.
In the case of “CGGAATCCATGGACCGGTTTTCCCGGTAATCCGTATTTGTT (site CGGAATCCTCA)” it was 0.00562; in that of “CGGAATCCATGGACCGGTTTTCCCGGTAATCCGTATTTGTT (site CGGAATCCTCC)”, 0.00652; in that of “CGGAATCCATGGACCGGTTTTCCCGGTAATCCGTATTTGTT (site CGGAATCCTGA)”, 1.65.
With “CGGAATCCATGGACCGGTTTTCCCGGTAATCCGTATTTGTT (site CGGAATCCTGT)” the figure was 0.
With “CGGAATCCATGGACCGGTTTTCCCGGTAATCCGTATTTGTT (site CGGAATCCTTA)” the figure was 1.56; with “CGGAATCCATGGACCGGTTTTCCCGGTAATCCGTATTTGTT (site CGGAATCCTTG)”, 0.
Turning to “CGGAATCCATGGACCGGTTTTCCCGGTAATCCGTATTTGTT (site CGGAATGCTAA)”, the “recombinant UMI read abundance (log10)” value was 0.0054.
With “CGGAATCCATGGACCGGTTTTCCCGGTAATCCGTATTTGTT (site CGGAATGCTAC)” the figure was 0.
In the case of “CGGAATCCATGGACCGGTTTTCCCGGTAATCCGTATTTGTT (site CGGAATGCTCA)” it was 0.
